Entries after “also recorded” stand apart in the source; their conditions may differ. Counter-ions that a name gives are not always drawn.
Experiments:
UVB-irradiated back skin = assay: Barrier function after UVB irradiation (Example 12); assay type: in vivo, Hairless mice HOS: HR-1; conditions: for water content of the stratum corneum after ultraviolet irradiation: UVB 150 mJ/cm^2, fourth day (FIG. 21)
Procedure: Hairless mice HOS: HR-1 females (7 weeks old) were acclimatized to the experimental environment and then grouped into the 6 groups below, so that the body weight values were nearly uniform. • No ultraviolet irradiation group (n=2) • Ultraviolet (UVB) irradiation+solvent application group (n=4). • Ultraviolet (UVB) irradiation+200 nM apocynin application group (n=4). • Ultraviolet (UVB) irradiation+200 μM apocynin application group (n=4). • Ultraviolet (UVB) irradiation+2 μM Y-27632 application group (n=4). • Ultraviolet (UVB) irradiation+20 μM Y-27632 application group (n=4) In the above solution application group, aqueous solutions of each preparation were applied to hairless mice on their back once a day for five days, starting from the day before ultraviolet irradiation. UVB irradiation was carried out using a Yayoi ultraviolet irradiation system (Y-UV-Lab-K-D5 lamp type) at an intensity of 150 mJ/cm^2 once a day. The stratum corneum water content and TEWL of the irradiated area were measured for each group of mice on the fourth day after the start of ultraviolet irradiation. The measurements were performed using Corneometer CM825 and Tewameter TN300 (Courage+Khazaka, Integral Corporation, Germany) at specific sites on the back of the mice.

[1] = system: full thickness wounds in the skin of rodent tails; assay: Full thickness wound healing in tail skin; assay type: in vivo, mice; conditions: day 0, day 14, day 21 (FIG. 12)
Procedure: To test the above hypothesis, the present inventors performed a full-layer wound healing experiment using the tail skin of aged wild-type mice. […] Forced expression of hCOL17A1 by basal layer keratinocytes in mice also promoted wound healing (FIG. 12). […] To confirm the beneficial effects in vivo, these drugs were administered to full thickness wounds in the skin of rodent tails.

[2] = system: human epidermal keratinocytes; assay: Colony formation assay using human epidermal keratinocytes; assay type: cell-based
Description: To test whether COL17A1-mediated SCD maintains clonal proliferation of epidermal stem cell clones, the present inventors used a colony formation assay, which is an in vitro assay said to be the gold standard for assessing the self-renewal ability of epidermal stem cells, including cells in the tail epidermis.

COL17A1 [3] = assay: COL17A1 expression in human epidermal keratinocytes by high content imaging (HCS); assay type: cell-based; conditions: for COL17A1 expression level (control ratio): human epidermal keratinocytes, 48 hours after addition of reagents
Procedure: The present inventors further searched for substances that induce or maintain the expression of COL17A1. Human epidermal keratinocytes were seeded in 384-well plates, cultured for 48 hours after addition of reagents, immunostained with an anti-COL17A1 antibody and a fluorescently labeled secondary antibody, and then the fluorescence intensity per cell was detected using a high content imaging system (HCS: High Content Screening). In addition to cell counting with DAPI, the expression level of COL17A1 was quantified.

[4] = system: skin damage induced by anticancer drugs; assay: TEWL after EGF receptor inhibitor administration (Example 9); conditions: control mice about 18 months old, 50 mg/kg/day intraperitoneal, day 7 (FIG. 18)
Description: A 0.5% methylcellulose solution of the solvent was similarly administered to the control non-treated group. […] Measurements were taken at specific sites on the back of the mice (two sites symmetrically located on the left side and right side from the center of the spine) using Tewameter TN300 (Courage+Khazaka, Integral Corporation, Germany).

[5] = system: skin damage induced by erlotinib; assay: Improvement of skin damage caused by erlotinib administration, TEWL (Example 10); assay type: in vivo, C57BL6N mice; conditions: erlotinib 50 mg/kg/day intraperitoneal, 7 weeks old or 6 months old mice (FIG. 19)
Procedure: Female […] mice (7 weeks old or 6 months old) were acclimatized to the experimental environment, and then hair was removed from their back under anesthesia. […] The control non-administered group received the 0.5% methylcellulose solution of the solvent in the same way. The control group applied with the solvent and the group applied with 200 μM apocynin received an aqueous solution of each preparation once a day, five times a week on the back. To the control solvent application group the solvent (50% ethanol/PBS) of apocynin was similarly applied.

back skin = assay: Skin elasticity and TEWL after long-term application (Example 14); assay type: in vivo, hairless mice (HOS: HR-1); conditions: three times a week for seven weeks, day 53; retinol 0.1%, apocynin 200 μM (FIG. 23)
Procedure: TEWL measurements and skin elasticity measurements were performed on the back of each group (at two sites on the left side and right side symmetrically from the center of the spine) 7 weeks after the start of application (day 53). TEWL measurements were performed at specific sites on the back of mice (two sites on the left side and right side symmetrically from the center of the spine). The elasticity of the skin was measured using Cutometer MPA580 (Courage+Khazaka, Integral Corporation, Germany) (parameter settings: 300 mba, 2 sec ON time, 2 sec OFF time), and the average value of the three measurements was used for analysis. By suctioning the skin on the back of the mouse for 2 seconds and then releasing the suction 2 seconds later, the length of the skin stretched was measured at each time point immediately after suctioning, immediately before suction release, and immediately after suction release; and they are return of the skin at the time of suction release (Ua: unit mm), rapid stretching in the initial stage of suctioning (Ue: unit mm), maximum degree of skin stretch just before suction release (Uf: unit mm), and the amount of rapid recovery immediately after suction release (Ur: unit mm). R5-Ur/Ue was set as the index of net elasticity, and R7=Ur/Uf as the index of elasticity. R2=Ua/Uf was set as the index of gross elasticity.

[6] = system: UV-induced wrinkles of back skin; assay: Wrinkle improvement after UV irradiation (Example 15); assay type: in vivo, Hairless mice HOS: HR-1; conditions: UVA+UVB, retinol 0.1%, apocynin 200 μM, long-term application (FIG. 25)
Description: In a mouse model in which wrinkle formation was induced by long-term exposure to ultraviolet (UVA) light, the present inventors examined the effect of substances that promote the self-renewal ability of epidermal stem cells on the improvement of wrinkles.
Hairless mice HOS: HR-1 females (7 weeks old) were acclimated to the experimental environment and then grouped into the […] groups below, so that their body weight values would be nearly uniform. • No UV irradiation group (n=2). • UV (UVA+UVB) irradiation+solvent application group (n=4) • Ultraviolet (UVA+UVB) irradiation+200 μM apocynin application group (n=4). • UV (UVA+UVB) irradiation+0.1% retinol application group (n=2) […]
For each group of mice from the first to the fourth week after the start of UV irradiation, the back was photographed with a high-resolution three-dimensional image analyzer PRIMOS-CR (Canfield Scientific, Inc., USA). Based on the images obtained, total wrinkle volume (mm^3) and total wrinkle mean depth (μm) were measured with the Primos OMC3_22 software. Skin flexibility was measured using Cutometer MPA580 (Courage+Khazaka, Integral Corporation, Germany), and the value of RO was used as skin flexibility.

COL17A1 [7] = assay: Stabilization of COL17A1 against UV-induced repression
COL17A1 [8] = conditions: HaCaT cells, 24 hours after hydrogen peroxide treatment (FIG. 17)
Procedure: The anticancer agent hydroxyurea was administered to 7-week-old C57BL6 mice three times a month, and the tissues were collected three months later for immunostaining using an antibody for COL17A1. […] In addition, HaCaT cells, which are human epidermal keratinocytes, were irradiated with radiation (20 Gy, 30 Gy) and UV light (20 mJ, 30 mJ) and the cells were collected after 24 and 72 hours, respectively, and Western blotting was performed using an antibody against COL17A1.

[9] = Table 1, fluorescence intensity per cell

| Compound | Colony area (control ratio) ([2]; Table 1) | Colony number (control ratio) ([2]; Table 1) | COL17A1 expression level (control ratio) (COL17A1 [3]; [9]) | further results |
| --- | --- | --- | --- | --- |
| C[C@@H](N)[C@H]1CC[C@H](C(=O)Nc2ccncc2)CC1 [Y-27632] | ⊚ (one double circle (⊚) indicates maintenance of 1.0-1.2-fold) | ⊚ (one double circle (⊚) indicates maintenance of 1.0-1.2-fold) | ⊚⊚ (two double circles (⊚⊚) in the COL17A1 expression level (control ratio) represent a 2.0-fold or greater increase in the expression level) | water content of the stratum corneum after ultraviolet irradiation (UVB-irradiated back skin; 2 μM applied): significantly higher; TEWL after ultraviolet irradiation (UVB-irradiated back skin; 20 μM administration group, UVB, fourth day (FIG. 21)): significantly lower; water content of the stratum corneum after ultraviolet irradiation (UVB-irradiated back skin; 20 μM applied): significantly higher; wound repair (unrepaired wound area) [1]: significantly accelerated; wound repair (unrepaired wound area) ([1]; listed as Y27632): significantly promote the wound repair process; number of colonies ([2]; compared to the control, n=3 wells (FIG. 13, FIG. 16)): significantly increased; average size of the top five colonies ([2]; compared to the control, n=3 wells (FIG. 14)): significantly increased; colony size ([2]; human epidermal keratinocytes): significantly increased; number of colonies with a diameter greater than 2 mm ([2]; n=3 wells (FIG. 13 right)): significantly increased; COL17A1 expression / amount of COL17A1 in cultured keratinocytes compared to the control (COL17A1 [3]; in vitro, HCS (FIG. 15)): maintain or induce the COL17A1 expression; also recorded: induce the COL17A1 expression |
| C#Cc1cccc(Nc2ncnc3cc(OCCOC)c(OCCOC)cc23)c1 [Erlotinib] | – | – | – | TEWL [4]: significantly increased; TEWL [5]: significantly increased |
| O=S(=O)(c1cccc2cnccc12)N1CCCNCC1 [Fasudil (HA-1077), Fasudil] | ⊚ (one double circle (⊚) indicates maintenance of 1.0-1.2-fold) | ⊚ (one double circle (⊚) indicates maintenance of 1.0-1.2-fold) | ⊚⊚ (two double circles (⊚⊚) in the COL17A1 expression level (control ratio) represent a 2.0-fold or greater increase in the expression level) | – |
| Helenin | – | – | – | Colony area (control ratio) ([2]; Table 2): ⊚ (one double circle (⊚) indicates maintenance of 1.0-1.2-fold); Colony number (control ratio) ([2]; Table 2): ⊚ (one double circle (⊚) indicates maintenance of 1.0-1.2-fold); COL17A1 expression level (control ratio) (COL17A1 [3]; Table 2): ⊚⊚ (two double circles (⊚⊚) in the COL17A1 expression level (control ratio) represent a 2.0-fold or greater increase in the expression level) |
| Cc1ccc(-c2cc(C(F)(F)F)nn2-c2ccc(S(N)(=O)=O)cc2)cc1 [Celecoxib] | ⊚ (one double circle (⊚) indicates maintenance of 1.0-1.2-fold) | ⊚ (one double circle (⊚) indicates maintenance of 1.0-1.2-fold) | ⊚ (one double circle (⊚) represents a 1.2-fold or greater increase) | – |
| CC1=C(/C=C/C(C)=C/C=C/C(C)=C/CO)C(C)(C)CCC1 [Retinol] | – | – | – | TEWL after long-term continuous application (back skin): significantly increased; TEWL [6]: significantly increased; TEWL ([6]; listed as retinol): marked increase |
| CC(CCc1ccc(O)cc1)NCCc1ccc(O)c(O)c1 (centres unmarked) [Dobutamine Hydrochloride] | ⊚ (one double circle (⊚) indicates maintenance of 1.0-1.2-fold) | ⊚ (one double circle (⊚) indicates maintenance of 1.0-1.2-fold) | ⊚⊚ (two double circles (⊚⊚) in the COL17A1 expression level (control ratio) represent a 2.0-fold or greater increase in the expression level) | – |
| CC(=N)NCc1cccc(CN)c1 [1400 W] | ○ | ○ | ○ (one circle (0) represents a 1.0-1.2-fold maintenance) | – |
| Fc1ccc(C(c2ccc(F)cc2)N2CCN(C/C=C/c3ccccc3)CC2)cc1 [Flunarizine Hydrochloride] | ⊚ (one double circle (⊚) indicates maintenance of 1.0-1.2-fold) | ⊚ (one double circle (⊚) indicates maintenance of 1.0-1.2-fold) | ⊚ (one double circle (⊚) represents a 1.2-fold or greater increase) | – |
| CC(CN(C)C)CN1c2ccccc2CCc2ccccc21 (centres unmarked) [Trimipramine Maleate] | ⊚ (one double circle (⊚) indicates maintenance of 1.0-1.2-fold) | ⊚ (one double circle (⊚) indicates maintenance of 1.0-1.2-fold) | ⊚⊚ (two double circles (⊚⊚) in the COL17A1 expression level (control ratio) represent a 2.0-fold or greater increase in the expression level) | – |
| CC(=O)c1ccc2c(c1)Nc1ccccc1S2 [ML171] | ⊚ (one double circle (⊚) indicates maintenance of 1.0-1.2-fold) | ⊚ (one double circle (⊚) indicates maintenance of 1.0-1.2-fold) | ○ (one circle (0) represents a 1.0-1.2-fold maintenance) | – |
| CNC(=O)[C@@H](NC(=O)[C@H](CC(C)C)[C@H](O)C(=O)NO)C(C)(C)C [Marimastat] | – | – | – | COL17A1 stability / UV-induced downward repression of COL17A1 (COL17A1 [7]): stabilizes COL17A1 and blocks the UV-induced downward repression of COL17A1 |
| CN(C)c1cccc(-c2c3c(=O)n(-c4ccccc4Cl)[nH]c3cc(=O)n2C)c1 [GKT137831] | ○ | ○ | ○ (one circle (0) represents a 1.0-1.2-fold maintenance) | – |
| O=c1cc(-c2ccc(O)cc2)oc2cc(O)cc(O)c12 [Apigenin] | ○ | ○ | ⊚⊚ (two double circles (⊚⊚) in the COL17A1 expression level (control ratio) represent a 2.0-fold or greater increase in the expression level) | – |
| OO [hydrogen peroxide] | – | – | – | expression of COL17A1 (Western blot) (COL17A1 [8]): marked decrease |
| C[C@H]1CNCCCN1S(=O)(=O)c1cccc2cncc(F)c12 [Ripasudil] | ⊚ (one double circle (⊚) indicates maintenance of 1.0-1.2-fold) | ⊚ (one double circle (⊚) indicates maintenance of 1.0-1.2-fold) | ⊚⊚ (two double circles (⊚⊚) in the COL17A1 expression level (control ratio) represent a 2.0-fold or greater increase in the expression level) | – |

From patent US20260256870A1, “SKIN COMPOSITION” (Eaderm Co., Ltd., priority 2019, published 2026)
